# ChEMBL document CHEMBL5241102, “Drugs for the treatment of glaucoma: Targets, structure-activity relationships and clinical research” (Eur J Med Chem, 2021)
# Values joined by “and” are separate entries in the source; they are usually repeats but may differ in a detail not shown here. Equal entries are not always repeated.
# Key:
# [1] = Induction of disruption of actin stress fibers in PTM cells by actin stress fiber assay; format: functional, cell-based, Sus scrofa; details: ptm cell
# [2] = Induction of disruption of actin stress fibers in human TM1 cells by actin stress fiber assay; format: functional, cell-based
# [3] = target: Autotaxin (Homo sapiens, UniProt Q13822); assay: Inhibition of ATX (unknown origin)
# [4] = Half life in rabbit; format: ADME, Oryctolagus cuniculus; details: in vivo
# [5] = species: Mus musculus; assay: Antiglaucoma activity in mouse eye assessed as increase in lymphatic drainage relative to control; format: functional
# [6] = target: Prostaglandin E2 receptor EP2 subtype (Homo sapiens, UniProt P43116); assay: Binding affinity to EP2 (unknown origin) assessed as inhibition constant
# [7] = system: Rhesus monkey; assay: Antiglaucoma activity in ocular […] monkey assessed as reduction in intraocular pressure; format: functional, organism-based; details: Macaca mulatta
# [8] = Half life in human; format: ADME
# [9] = target: T1, Prostaglandin E2 receptor EP3 subtype (Homo sapiens, UniProt P43115); assay: Agonist activity at EP3 (unknown origin)
# T1 sequence (P43115 whole entry): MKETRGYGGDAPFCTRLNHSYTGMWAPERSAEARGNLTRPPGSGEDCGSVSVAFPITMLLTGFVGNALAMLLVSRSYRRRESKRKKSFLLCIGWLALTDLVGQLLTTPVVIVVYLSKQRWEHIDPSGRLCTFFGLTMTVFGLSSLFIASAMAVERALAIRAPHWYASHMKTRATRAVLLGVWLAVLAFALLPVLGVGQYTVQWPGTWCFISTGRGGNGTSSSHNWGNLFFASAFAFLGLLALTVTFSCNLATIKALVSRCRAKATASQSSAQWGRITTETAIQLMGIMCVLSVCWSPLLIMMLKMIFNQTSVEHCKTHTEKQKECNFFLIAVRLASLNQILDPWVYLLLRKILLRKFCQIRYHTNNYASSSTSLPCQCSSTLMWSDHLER
# [10] = target: Prostaglandin F2-alpha receptor (Homo sapiens, UniProt P43088); assay: Agonist activity at FP receptor (unknown origin)
# Chain of Prostaglandin F2-alpha receptor (P43088 whole entry): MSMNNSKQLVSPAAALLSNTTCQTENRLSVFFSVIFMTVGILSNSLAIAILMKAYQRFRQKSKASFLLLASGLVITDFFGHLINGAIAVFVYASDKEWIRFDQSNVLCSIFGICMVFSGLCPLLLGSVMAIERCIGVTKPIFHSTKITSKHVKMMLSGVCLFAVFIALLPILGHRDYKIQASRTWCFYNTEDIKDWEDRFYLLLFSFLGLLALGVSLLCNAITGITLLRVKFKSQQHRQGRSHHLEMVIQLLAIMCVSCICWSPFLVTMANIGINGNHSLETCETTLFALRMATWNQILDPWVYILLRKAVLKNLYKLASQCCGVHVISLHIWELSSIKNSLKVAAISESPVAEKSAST
# Chain of Prostaglandin E2 receptor EP2 subtype (P43116 whole entry): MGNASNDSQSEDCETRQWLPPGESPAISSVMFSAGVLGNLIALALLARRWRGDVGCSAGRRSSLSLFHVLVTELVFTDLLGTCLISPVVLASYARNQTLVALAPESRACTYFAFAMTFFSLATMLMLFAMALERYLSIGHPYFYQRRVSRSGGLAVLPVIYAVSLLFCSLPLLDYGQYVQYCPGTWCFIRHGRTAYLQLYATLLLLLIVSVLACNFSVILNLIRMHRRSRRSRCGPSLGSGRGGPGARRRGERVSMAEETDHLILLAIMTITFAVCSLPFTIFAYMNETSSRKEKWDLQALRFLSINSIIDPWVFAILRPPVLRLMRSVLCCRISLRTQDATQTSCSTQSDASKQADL
smiles,measurement,setting,value
Cc1ccc(C(=O)OCc2ccc([C@@H](CN)C(=O)Nc3ccc4cnccc4c3)cc2)c(C)c1,IC50,[1],79 nM
same,IC50,[2],16 nM
NC[C@@H](C(=O)Nc1ccc2cnccc2c1)c1ccc(CO)cc1,IC50,[1],22 nM and 3 nM
CCCCCn1c(N2CCC[C@H](C(=O)O)C2)cc(=O)n2cc(-c3ccc(Cl)cc3)nc12,IC50,[3],110 nM
O=C(CCC/C=C\C[C@@H]1[C@@H](CC[C@@H](O)CCc2ccccc2)[C@H](O)C[C@@H]1O)OCCCCO[N+](=O)[O-] [LATANOPROSTENE BUNOD],half-life,[4],1.8 h
CC(C)OC(=O)CCC/C=C\C[C@@H]1[C@@H](CC[C@@H](O)CCc2ccccc2)[C@H](O)C[C@@H]1O [LATANOPROST],Activity,[5],400%
O=C(O)CNc1cccc(CN(Cc2ccc(-n3cccn3)cc2)S(=O)(=O)c2cccnc2)n1 [OMIDENEPAG],Ki,[6],3.6 nM
same,EC50,[7],8.3 nM
same,half-life,[8],0.5 h
O=C(O)CCC[C@H]1CC[C@@H]2[C@@H](/C=C/[C@@H](O)COc3cc(F)ccc3F)[C@H](O)C[C@@H]2OC1 [ONO-AG-367],EC50,[9],28.6 nM
same,EC50,[10],22.3 nM
CC(C)OC(=O)CCC[C@H]1CC[C@@H]2[C@@H](/C=C/[C@@H](O)COc3cc(F)ccc3F)[C@H](O)C[C@@H]2OC1 [SEPETAPROST],EC50,[9],10 nM
same,EC50,[10],3030 nM
